One data set addresses T1, Human PDE10A enzyme (Homo sapiens, UniProt Q9Y233).
T1 construct: transfected with the full-length gene; His-tag; made in house; host or cells: Sf9 or COS-7 cells
The experiment in a line: PDE enzyme inhibition, SPA (Scintillation Proximity Assay) with [3H]cGMP. In kind it is biochemical. The conditions noted are these: [3H]cGMP substrate; for inhibition at 1 µM: compound 1 μM, read-out: Percent inhibition (1 μM); for inhibition at 10 µM: compound 10 μM, read-out: Percent inhibition (10 μM). The procedure:
Human PDE10A enzyme was generated from Sf9 or COS-7 cells transfected with the full-length gene. Cloned enzyme was extracted from homogenized cell pellets. The extracted enzyme from sf9 cells was partially purified using His-tag affinity column. The enzyme was stored at −70° C. until use. PDE activity was measured using a SPA (Scintillation Proximity Assay) (GE Healthcare). To evaluate the inhibitory activity, 10 μL of serial diluted compounds were incubated with 20 μL of PDE enzyme in assay buffer (50 mM HEPES-NaOH, 8.3 mM MgCl2, 1.7 mM EGTA, 0.1% BSA (pH 7.4)) for 30 min. at room temperature. Final concentration of DMSO in the assay was 1 percent as compounds were tested in duplicate in 96-well half-area plates (Corning). To start the reaction, 10 μL of substrate [^3H] cGMP (25 or 50 nM; enclosed in SPA kits from GE Healthcare or purchased from PerkinElmer, respectively) was added for a final assay volume of 40 μL. After 60 min incubation at room temperature, yttrium SPA beads containing Zinc sulphate were added (20 μL at 6 mg/mL) to terminate the PDE reaction. After being settled for 60 min, assay plates were counted in a scintillation counter (PerkinElmer) to allow calculation of inhibition rate. Inhibition rate was calculated on the basis of 0% control wells with DMSO and 100% control wells without enzyme.
(In general: SPA uses beads or plates that emit light when radiolabelled molecules are held near them.)

Molecules are shown by their SMILES.

T1 sequence (Q9Y233 267-1055): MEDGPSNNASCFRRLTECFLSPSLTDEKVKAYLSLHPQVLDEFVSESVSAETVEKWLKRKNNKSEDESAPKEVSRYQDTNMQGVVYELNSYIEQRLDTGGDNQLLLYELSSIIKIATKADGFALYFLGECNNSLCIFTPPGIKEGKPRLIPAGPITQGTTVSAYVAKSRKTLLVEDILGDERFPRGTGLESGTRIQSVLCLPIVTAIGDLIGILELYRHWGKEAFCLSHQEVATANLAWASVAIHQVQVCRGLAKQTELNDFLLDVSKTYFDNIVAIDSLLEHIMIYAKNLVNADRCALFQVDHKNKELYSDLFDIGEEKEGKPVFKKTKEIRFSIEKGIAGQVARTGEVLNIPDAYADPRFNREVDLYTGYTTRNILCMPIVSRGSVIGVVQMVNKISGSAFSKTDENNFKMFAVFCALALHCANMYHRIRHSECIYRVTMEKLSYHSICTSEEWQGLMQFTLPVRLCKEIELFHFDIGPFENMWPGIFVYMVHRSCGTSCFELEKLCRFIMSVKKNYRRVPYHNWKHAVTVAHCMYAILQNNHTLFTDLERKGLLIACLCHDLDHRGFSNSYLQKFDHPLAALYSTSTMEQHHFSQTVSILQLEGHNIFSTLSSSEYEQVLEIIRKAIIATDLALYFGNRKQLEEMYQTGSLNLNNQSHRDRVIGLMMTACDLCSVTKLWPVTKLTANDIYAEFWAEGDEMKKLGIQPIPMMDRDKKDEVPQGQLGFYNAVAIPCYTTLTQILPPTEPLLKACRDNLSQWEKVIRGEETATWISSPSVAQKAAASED

Turning to `CCn1c(=O)n(-c2ccc(Oc3nc4ccccc4n3C)cc2)c2ncccc21` [Example 19, 1-ethyl-3-{4-[(1-methyl-1H-benzimidazol-2-yl)oxy]phenyl}-1,3-dihydro-2H-imidazo[4,5-b]pyridin-2-one], the melting point (commonly the temperature of the solid-liquid transition) is 184 to 186 °C.

Consider `CCn1c(=O)n(-c2ccc(-n3ccn4c5ccccc5nc34)cc2)c2ncccc21` [Example 65, 1-Ethyl-3-[4-(1H-imidazo[1,2-a]benzimidazol-1-yl)phenyl]-1,3-dihydro-2H-imidazo[4,5-b]pyridin-2-one], for which the melting point was 220 to 221 °C. Also, at Human PDE10A enzyme, the inhibition (as a rule, the drop in the measured response relative to a control, in per cent) at 1 µM stood at 100% and the inhibition at 10 µM was 101%.

As to `CCn1c(=O)n(-c2ccc(Oc3nc4ccccc4n3C)cc2)c2ncc(Cl)cc21` [Example 106, 6-chloro-1-ethyl-3-{4-[(1-methyl-1H-benzimidazol-2-yl)oxy]phenyl}-1,3-dihydro-2H-imidazo[4,5-b]pyridin-2-one], the melting point was in the range of 208 to 210 °C. In addition, on Human PDE10A enzyme, the inhibition at 1 µM is 103% and the inhibition at 10 µM is 102%.

Take `CCn1c(=O)n(-c2ccc(Oc3nc4cccnc4n3C)cc2)c2ncc(C#N)cc21` [Example 108, 1-ethyl-3-{4-[(3-methyl-3H-imidazo[4,5-b]pyridin-2-yl)oxy]phenyl}-2-oxo-2,3-dihydro-1H-imidazo[4,5-b]pyridine-6-carbonitrile]: at Human PDE10A enzyme, the inhibition at 1 µM amounted to 100% and the inhibition at 10 µM was determined as 102%.

As for `CCn1c(=O)n(-c2ccc(Oc3nc4ccccc4n3C)cc2)c2ncc(C#N)cc21` [Example 109, 1-ethyl-3-{4-[(1-methyl-1H-benzimidazol-2-yl)oxy]phenyl}-2-oxo-2,3-dihydro-1H-imidazo[4,5-b]pyridine-6-carbonitrile], on Human PDE10A enzyme, the inhibition at 1 µM was found to be 99% and the inhibition at 10 µM stood at 102%.

As for `CCn1c(=O)n(-c2ccc(Oc3nc4c(n3C)CCCC4)cc2)c2ncccc21` [Example 112, 1-ethyl-3-{4-[(1-methyl-4,5,6,7-tetrahydro-1H-benzimidazol-2-yl)oxy]phenyl}-1,3-dihydro-2H-imidazo[4,5-b]pyridin-2-one], on Human PDE10A enzyme, the inhibition at 1 µM was 99% and the inhibition at 10 µM amounted to 98%.

Consider `CCn1c(=O)n(-c2ccc(Oc3nc4ccncc4[nH]3)cc2)c2ncccc21` [Example 115, 1-ethyl-3-[4-(3H-imidazo[4,5-c]pyridin-2-yloxy)phenyl]-1,3-dihydro-2H-imidazo[4,5-b]pyridin-2-one], for which, at Human PDE10A enzyme, the inhibition at 1 µM was 100% and the inhibition at 10 µM came out at 97%.

`CCn1c(=O)n(-c2ccc(Oc3nc4cccnc4n3C)cc2)c2ncc(C)cc21` [Example 118, 1-ethyl-6-methyl-3-{4-[(3-methyl-3H-imidazo[4,5-b]pyridin-2-yl)oxy]phenyl}-1,3-dihydro-2H-imidazo[4,5-b]pyridin-2-one] returned a melting point of 217 to 219 °C. At Human PDE10A enzyme, the inhibition at 1 µM is 102% and the inhibition at 10 µM is 104%.

For `CCn1c(=O)n(-c2ccc(Oc3nc4cccnc4n3C)cc2)c2ncc(OC)cc21` [Example 119, 1-ethyl-6-methoxy-3-{4-[(3-methyl-3H-imidazo[4,5-b]pyridin-2-yl)oxy]phenyl}-1,3-dihydro-2H-imidazo[4,5-b]pyridin-2-one], the melting point lay within 197 to 198 °C. Also, on Human PDE10A enzyme, the inhibition at 1 µM came out at 99% and the inhibition at 10 µM worked out at 103%.

For the molecule `CCn1c(=O)n(-c2ccc(Oc3nc4cccnc4n3C)cc2)c2nccc(C)c21` [Example 120, 1-ethyl-7-methyl-3-{4-[(3-methyl-3H-imidazo[4,5-b]pyridin-2-yl)oxy]phenyl}-1,3-dihydro-2H-imidazo[4,5-b]pyridin-2-one], on Human PDE10A enzyme, the inhibition at 1 µM is 109% and the inhibition at 10 µM turned out to be 106%.

In turn, `Cc1ccnc2c1n(C(C)C)c(=O)n2-c1ccc(Oc2nc3cccnc3n2C)cc1` [Example 121, 7-methyl-1-(1-methylethyl)-3-{4-[(3-methyl-3H-imidazo[4,5-b]pyridin-2-yl)oxy]phenyl}-1,3-dihydro-2H-imidazo[4,5-b]pyridin-2-one] returned a melting point of 270 to 271 °C. For the same molecule, on Human PDE10A enzyme, the inhibition at 1 µM worked out at 103% and the inhibition at 10 µM was 99%.

Take `Cc1cnc2c(c1)n(C(C)C)c(=O)n2-c1ccc(Oc2nc3cccnc3n2C)cc1` [Example 122, 6-methyl-1-(1-methylethyl)-3-{4-[(3-methyl-3H-imidazo[4,5-b]pyridin-2-yl)oxy]phenyl}-1,3-dihydro-2H-imidazo[4,5-b]pyridin-2-one]: the melting point is 252 °C. On Human PDE10A enzyme, the inhibition at 1 µM was found to be 109% and the inhibition at 10 µM came to 107%.

As to `CC1(C)C(=O)N(c2ccc(Oc3cn4ccccc4n3)cc2)c2ncccc21` [Example 123, 1-[4-(imidazo[1,2-a]pyridin-2-yloxy)phenyl]-3,3-dimethyl-1,3-dihydro-2H-pyrrolo[2,3-b]pyridin-2-one], on Human PDE10A enzyme, the inhibition at 1 µM worked out at 96% and the inhibition at 10 µM amounted to 101%.

On to `CCn1c(=O)n(-c2ccc(Oc3cn4ccccc4n3)cc2)c2ncc(C)cc21` [Example 124, 1-ethyl-3-[4-(imidazo[1,2-a]pyridin-2-yloxy)phenyl]-6-methyl-1,3-dihydro-2H-imidazo[4,5-b]pyridin-2-one], for which, on Human PDE10A enzyme, the inhibition at 1 µM was determined as 99% and the inhibition at 10 µM turned out to be 99%.

Molecule `CCn1c(=O)n(-c2ccc(Oc3nc4ccccc4n3C)cc2)c2ncncc21` [Example 125, 7-ethyl-9-{4-[(1-methyl-1H-benzimidazol-2-yl)oxy]phenyl}-7,9-dihydro-8H-purin-8-one] came in with a melting point of 242 to 243 °C. On Human PDE10A enzyme, the inhibition at 1 µM was 99% and the inhibition at 10 µM worked out at 101%.

Take `CC(C)n1c(=O)n(-c2ccc(Oc3nc4cccnc4n3C)cc2)c2ncc(Cl)cc21` [Example 126, 6-chloro-1-(1-methylethyl)-3-{4-[(3-methyl-3H-imidazo[4,5-b]pyridin-2-yl)oxy]phenyl}-1,3-dihydro-2H-imidazo[4,5-b]pyridin-2-one]: at Human PDE10A enzyme, the inhibition at 1 µM turned out to be 98% and the inhibition at 10 µM was 100%.

Molecule `CCn1c(=O)n(-c2ccc(Oc3nc4cccnc4n3C)cc2)c2ncc(OC(F)F)cc21` [Example 127, 6-(difluoromethoxy)-1-ethyl-3-{4-[(3-methyl-3H-imidazo[4,5-b]pyridin-2-yl)oxy]phenyl}-1,3-dihydro-2H-imidazo[4,5-b]pyridin-2-one] came in with a melting point of 195 to 197 °C. Moreover, on Human PDE10A enzyme, the inhibition at 1 µM was 101% and the inhibition at 10 µM came out at 101%.

For `CCn1c(=O)n(-c2ccc(Oc3nc4cccnc4n3C)cc2)c2ncc(OCC(F)F)cc21` [Example 128, 6-(2,2-difluoroethoxy)-1-ethyl-3-{4-[(3-methyl-3H-imidazo[4,5-b]pyridin-2-yl)oxy]phenyl}-1,3-dihydro-2H-imidazo[4,5-b]pyridin-2-one], the melting point lay in the range of 171 to 172 °C. On Human PDE10A enzyme, the inhibition at 1 µM amounted to 94% and the inhibition at 10 µM came out at 91%.

For `CCn1c(=O)n(-c2ccc(Oc3nc4ccccc4n3C)cc2)c2ncc(F)cc21` [Example 132, 1-ethyl-6-fluoro-3-{4-[(1-methyl-1H-benzimidazol-2-yl)oxy]phenyl}-1,3-dihydro-2H-imidazo[4,5-b]pyridin-2-one], at Human PDE10A enzyme, the inhibition at 1 µM came to 104% and the inhibition at 10 µM turned out to be 107%.

As for `CCn1c(=O)n(-c2ccc(Oc3nc4cccnc4n3C)cc2)c2ncc(F)cc21` [Example 133, 1-ethyl-6-fluoro-3-{4-[(3-methyl-3H-imidazo[4,5-b]pyridin-2-yl)oxy]phenyl}-1,3-dihydro-2H-imidazo[4,5-b]pyridin-2-one], on Human PDE10A enzyme, the inhibition at 1 µM came to 104% and the inhibition at 10 µM was determined as 101%.

Consider `Cc1ccnc2c1n(C)c(=O)n2-c1ccc(Oc2nc3cccnc3n2C)cc1` [Example 135, 1,7-dimethyl-3-{4-[(3-methyl-3H-imidazo[4,5-b]pyridin-2-yl)oxy]phenyl}-1,3-dihydro-2H-imidazo[4,5-b]pyridin-2-one], for which, on Human PDE10A enzyme, the inhibition at 1 µM was found to be 94% and the inhibition at 10 µM was 99%.

Take `CCn1c(=O)n(-c2ccc(Oc3nc4cccnc4n3C)cc2)c2c1c(C)cc[n+]2[O-]` [Example 136, 1-ethyl-7-methyl-3-{4-[(3-methyl-3H-imidazo[4,5-b]pyridin-2-yl)oxy]phenyl}-1,3-dihydro-2H-imidazo[4,5-b]pyridin-2-one 4-oxide]: on Human PDE10A enzyme, the inhibition at 1 µM came out at 81% and the inhibition at 10 µM worked out at 98%.

Turning to `CCn1c(=O)n(-c2ccc(Oc3nc4cccnc4n3C)cc2)c2nccc(COC(C)=O)c21` [Example 137, (1-ethyl-3-{4-[(3-methyl-3H-imidazo[4,5-b]pyridin-2-yl)oxy]phenyl}-2-oxo-2,3-dihydro-1H-imidazo[4,5-b]pyridin-7-yl)methyl acetate], on Human PDE10A enzyme, the inhibition at 1 µM is 88% and the inhibition at 10 µM came to 98%.

As to `CCn1c(=O)n(-c2ccc(Oc3nc4cccnc4n3C)cc2)c2nccc(CO)c21` [Example 138, 1-ethyl-7-(hydroxymethyl)-3-{4-[(3-methyl-3H-imidazo[4,5-b]pyridin-2-yl)oxy]phenyl}-1,3-dihydro-2H-imidazo[4,5-b]pyridin-2-one], on Human PDE10A enzyme, the inhibition at 1 µM was 93% and the inhibition at 10 µM worked out at 105%.

Values taken from patent US8846713B2, “Fused heterocyclic compounds as phosphodiesterases (PDEs) inhibitors” (Takeda Pharmaceutical Company Limited, priority 2010, dated 2014).
